Results as given in patent publication US4452778A, “Synergistic antibacterial compositions and method of treatment of infections caused by multiple antibiotic-resistant organisms” (Eli Lilly and Company, priority 1981, dated 1984).
Read-outs that look alike come from different tables or passages of the source.

How the values were obtained:
E. cloacae = assay: Checkerboard broth dilution synergy study (mic); assay type: cell-based; settings: Table II; for MIC: Enterobacter cloacae, read-out: mic, drug alone
Proteus rettgeri = assay: Checkerboard broth dilution synergy study (mic); assay type: cell-based; settings: Providencia rettgeri, Table II, strain 65; read-out: mic, drug alone
Klebsiella pneumoniae = assay: Checkerboard broth dilution synergy study (mic); assay type: cell-based; settings: Table II; for MIC: Klebsiella pneumoniae, read-out: mic, drug alone
Proteus vulgaris = assay: Checkerboard broth dilution synergy study (mic); assay type: cell-based; settings: Proteus vulgaris, Table II, read-out: mic, drug alone
Proteus mirabilis = assay: Checkerboard broth dilution synergy study (mic); assay type: cell-based; settings: Proteus mirabilis; Table II, strain Allen; read-out: mic, drug alone
E. coli = assay: Checkerboard broth dilution synergy study (mic); assay type: cell-based; settings: Table II; for MIC: Escherichia coli, read-out: mic, drug alone
Pseudomonas aeruginosa = assay: Checkerboard broth dilution synergy study (mic); assay type: cell-based; settings: Table II; for MIC: Pseudomonas aeruginosa, read-out: mic, drug alone
Serratia marcescens = assay: Checkerboard broth dilution synergy study (mic); assay type: cell-based; settings: Table II; for MIC: Serratia marcescens, read-out: mic, drug alone
[1] = cited from earlier work; for mean serum concentration: end of injection

CCN1CCN(C(=O)N[C@@H](C(=O)N[C@@H]2C(=O)N3[C@@H]2SC(C)(C)[C@@H]3C(=O)O)c2ccccc2)C(=O)C1=O [piperacillin, sodium 6-(D(-)-α-(4-ethyl-2,3-dioxo-1-piperazinylcarbonylamino)-α-phenylacetamido]penicillinate]
MIC (E. cloacae; strain 1246): > 64 µg/mL
MIC (E. cloacae; strain 1253): > 64 µg/mL
MIC (E. cloacae; strain 1415): > 64 µg/mL
MIC (E. cloacae; strain B293): > 64 µg/mL
mic of each drug in combination I + P (E. cloacae; strain 1253): 32 µg/mL
mic of each drug in combination I + P (E. cloacae; strain B293): 16 µg/mL
MIC (Proteus rettgeri): 64 µg/mL
MIC (Klebsiella pneumoniae; strain 130): > 64 µg/mL
MIC (Klebsiella pneumoniae; strain 214-1): > 64 µg/mL
MIC (Klebsiella pneumoniae; strain 463): > 64 µg/mL
MIC (Klebsiella pneumoniae; strain 512): > 64 µg/mL
MIC (Klebsiella pneumoniae; strain 933): > 64 µg/mL
MIC (Klebsiella pneumoniae; strain 1204-2): > 64 µg/mL
mic of each drug in combination I + P (Klebsiella pneumoniae; strain 214-1): 8 µg/mL
mic of each drug in combination I + P (Klebsiella pneumoniae; strain 463): 16 µg/mL
mic of each drug in combination I + P (Klebsiella pneumoniae; strain 512): 32 µg/mL
mic of each drug in combination I + P (Klebsiella pneumoniae; strain 1204-2): 2 µg/mL
MIC (Proteus vulgaris; strain 363): > 64 µg/mL
MIC (Proteus vulgaris; strain Shide): > 64 µg/mL
MIC (Proteus mirabilis): > 64 µg/mL
MIC (E. coli; strain 46-2): > 64 µg/mL
MIC (E. coli; strain 77-3): > 64 µg/mL
MIC (E. coli; strain 136-3): > 64 µg/mL
MIC (E. coli; strain 1260): > 64 µg/mL
MIC (E. coli; strain 1262): > 64 µg/mL
MIC (E. coli; strain Briley): > 64 µg/mL
MIC (E. coli; strain Dill): 32 µg/mL
mic of each drug in combination I + P (E. coli; strain 46-2): 2 µg/mL
mic of each drug in combination I + P (E. coli; strain 1253): 4 µg/mL
mic of each drug in combination I + P (E. coli; strain 1262): 64 µg/mL
mic of each drug in combination I + P (E. coli; strain 1415): 2 µg/mL
mic of each drug in combination I + P (E. coli; strain Briley): 32 µg/mL
MIC (Pseudomonas aeruginosa; strain 84): 64 µg/mL
MIC (Pseudomonas aeruginosa; strain 366): > 128 µg/mL
MIC (Pseudomonas aeruginosa; strain 424): > 128 µg/mL
MIC (Pseudomonas aeruginosa; strain 447): > 128 µg/mL
MIC (Pseudomonas aeruginosa; strain 1484): 64 µg/mL
MIC (Pseudomonas aeruginosa; strain Davis): > 64 µg/mL
mic of each drug in combination I + P (Pseudomonas aeruginosa; strain 84): 4 µg/mL
mic of each drug in combination I + P (Pseudomonas aeruginosa; strain 366): 16 µg/mL
mic of each drug in combination I + P (Pseudomonas aeruginosa; strain 424): 0.5 µg/mL
mic of each drug in combination I + P (Pseudomonas aeruginosa; strain 447): 0.5 µg/mL
mic of each drug in combination I + P (Pseudomonas aeruginosa; strain 1484): 8 µg/mL
mic of each drug in combination I + P (Pseudomonas aeruginosa; strain Davis): 16 µg/mL
MIC (Serratia marcescens; strain 100): > 64 µg/mL
MIC (Serratia marcescens; strain 302-2): > 64 µg/mL
MIC (Serratia marcescens; strain 796): > 64 µg/mL
MIC (Serratia marcescens; strain 14142): > 64 µg/mL
MIC (Serratia marcescens; strain Townsend): > 64 µg/mL
mic of each drug in combination I + P (Serratia marcescens; strain 100): 32 µg/mL
mic of each drug in combination I + P (Serratia marcescens; strain 302-2): 8 µg/mL
mic of each drug in combination I + P (Serratia marcescens; strain 796): 4 µg/mL
mic of each drug in combination I + P (Serratia marcescens; strain 14142): 8 µg/mL
mic of each drug in combination I + P (Serratia marcescens; strain Townsend): 64 µg/mL
mean peak serum concentration ([1]; single intramuscular dose 0.5 g): 4.9 µg/mL
mean peak serum concentration ([1]; single intramuscular dose 1.0 g): 13.3 µg/mL
mean peak serum concentration ([1]; single intramuscular dose 2.0 g): 30.2 µg/mL
mean serum concentration ([1]; single intravenous bolus 1.0 g): 70.7 µg/mL
mean serum concentration ([1]; single intravenous bolus 2.0 g): 199.5 µg/mL
mean serum concentration ([1]; single intravenous bolus 4.0 g): 330.7 µg/mL
mean serum concentration ([1]; single intravenous bolus 6.0 g): 451.8 µg/mL
